From patent publication US10899736B2, “Processes and intermediates for making a JAK inhibitor” (Incyte Corporation, priority 2018, dated 2021)

Target: T1, human JAK1 (a.a. 837-1142) catalytic domain (Homo sapiens, UniProt P23458)
T1 construct: human JAK1 (a.a. 837-1142); His tag (N); made in house; host or cells: insect cells (baculovirus)
Test: In vitro JAK kinase assay (HTRF, phosphorylation of biotinylated peptide)
Assay type: biochemical
Settings: measured at 1 mM ATP
Method: The compound of Formula I was tested for inhibitory activity of JAK targets according to the following in vitro assay described in Park et al., Analytical Biochemistry 1999, 269, 94-104. The catalytic domains of human JAK1 (a.a. 837-1142) and JAK2 (a.a. 828-1132) with an N-terminal His tag were expressed using baculovirus in insect cells and purified. The catalytic activity of JAK1 and JAK2 was assayed by measuring the phosphorylation of a biotinylated peptide. The phosphorylated peptide was detected by homogenous time resolved fluorescence (HTRF). IC50s of compounds were measured for each kinase in the 40 micro L reactions that contain the enzyme, ATP and 500 nM peptide in 50 mM Tris (pH 7.8) buffer with 100 mM NaCl, 5 mM DTT, and 0.1 mg/mL (0.01%) BSA. For the 1 mM IC50 measurements, ATP concentration in the reactions was 1 mM. Reactions were carried out at room temperature for 1 hr and then stopped with 20 μL 45 mM EDTA, 300 nM SA-APC, 6 nM Eu-Py20 in assay buffer (Perkin Elmer, Boston, Mass.). Binding to the Europium labeled antibody took place for 40 minutes and HTRF signal was measured on a Fusion plate reader (Perkin Elmer, Boston, Mass.).

T1 sequence (P23458 849-1154): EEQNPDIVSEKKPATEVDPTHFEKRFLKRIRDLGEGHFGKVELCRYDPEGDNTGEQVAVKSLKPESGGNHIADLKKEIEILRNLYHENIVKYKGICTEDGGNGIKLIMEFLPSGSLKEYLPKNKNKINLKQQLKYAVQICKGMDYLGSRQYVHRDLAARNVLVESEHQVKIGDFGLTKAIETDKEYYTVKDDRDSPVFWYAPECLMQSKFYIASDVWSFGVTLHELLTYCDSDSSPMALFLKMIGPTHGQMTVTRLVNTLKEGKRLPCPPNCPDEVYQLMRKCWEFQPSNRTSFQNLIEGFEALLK

IC50: < 5 nM
SMILES: N#CCC1(n2cc(-c3ncnc4[nH]ccc34)cn2)CN(C2CCN(C(=O)c3ccnc(C(F)(F)F)c3F)CC2)C1 [Formula I, {1-{1-[3-fluoro-2-(trifluoromethyl)isonicotinoyl]piperidin-4-yl}-3-[4-(7H-pyrrolo[2,3-d]pyrimidin-4-yl)-1H-pyrazol-1-yl]azetidin-3-yl}acetonitrile]
